Data taken from patent US20080103191A1, “ENTACAPONE-DERIVATIVES” (priority 2006, published 2008).
Values after ≈ are worked out from the molar mass of the structure shown. Where two headings read alike, the source gives them in different places.

Columns and labels:
[1] = Permeability in Caco-2 cells, apical to basolateral; format: in vitro ADME; parameters: dose or concentration left out as unconfirmed; conditions: human; 21d Caco-2 monolayer, apical pH 6.5 to basolateral pH 7.4, 60 minutes
Excerpt: The human adenocarcinoma cell line Caco-2 is used as an in vitro system to predict oral absorption. These cells serve as a model of small bowel tissue and permeation through these cells is a predictor for gastro-intestinal absorption. Further to being a model for oral absorption, permeability in Caco-2 cells may be predictive for the blood brain barrier permeability (P. Garberg et al.; Toxicology in vitro 19 (2005); 299-334). […] The permeability in Caco-2 cells has been tested by the following method:
The permeability of selected compounds of formula I across Caco-2 (21d Caco-2-culture) monolayer in the apical to basolateral direction is investigated. Control substances were ^3H-propranolol and ^3H-mannitol.
The nominal concentration of the test items is […]. The pH value is set to 6.5 for the apical transport medium and to 7.4 for the basolateral medium. Samples are obtained following 60 minutes (120 minutes for control samples) incubation from the basolateral receiver chamber. At sampling time approximately 600 μL of each well are transferred into an eppendorf vial and stored between −12° and −30° C. until HPLC or LC-MS/MS analysis. The control substances are quantified by liquid scintillation.

[2] = Log D (pH 7.4) by isocratic HPLC; format: physicochemical; conditions: YMC Pro C18 column, phosphate buffer pH 7.4/acetonitrile 45/55
Protocol: LogD is an indicator for absorption and lipophilicity for ionized compounds under defined pH conditions and is measured by applying an isocratic HPLC Method at pH 7.4.
The log D has been tested at pH 7.4. The testing has been carried out by the following method: Isocratic HPLC method: Column YMC Pro C18, 150 mm×4.0 mm, 3 μm, Eluent Phosphate buffer pH 7.4/acetonitrile (45/55, (v/v)), Runtime 15-60 min, Flow rate 1.2 ml/min, Detection wavelength: 220 nm

[3] = Solubility in 0.1 N HCl, PBS buffer, FaSSIF and FeSSIF; format: physicochemical; conditions: thermodynamic from solid, ambient temperature
Protocol: For testing solubility, saturated solutions of selected compounds of formula I are prepared in four different systems and compared to the solubility of entacapone. The solubility is tested in 0.1 N HCl (pH 1), PBS buffer (pH 7.4) and in two simulated gastric fluids, FaSSIF at pH 6.5 (for fasting state) and FeSSIF at pH 5.0 (for fed state) at ambient temperature. The content of the FaSSIF simulated gastric fluid is as follows:
The solubility testing is carried out by the following method: An excess amount of each compound is added to a 0.1 N HCl, PBS buffer, FeSSIF and FaSSIF. The suspensions are shaken for 10 min. After centrifugation the concentration is determined by HPLC. Reversed phase gradient HPLC method, column YMC Pro C8, 50 mm×4.0 mm, 3 μm, Eluent A: Water:trifluoroacetic acid (100:0.5 (v/v)), Eluent B: Acetonitrile:trifluoroacetic:acid (100:0.5 (v/v)). Column temperature 30° C., Flow rate 3.0 mL/min, Detection wavelength: 220 nm

[4] = Chemical hydrolysis stability at pH 1 and pH 7.4 (HPLC); format: physicochemical; conditions: 37° C., over 12 h
Protocol: The stability of compounds of the present invention is tested at pH 1 and at pH 7.4. The testing is carried out by the following HPLC method:
Chemical hydrolysis rates t1/2 [h] of selected compounds of formula I are determined in 0.1 N HCl (pH 1) and PBS buffer (pH 7.4) solution. Solutions are prepared by dissolving an appropriate amount of compound in 0.1 N HCl and PBS buffer solution. Samples were withdrawn at designated time intervals and analysed for remaining prodrug by HPLC at 37° C. over 12 h.
Reversed phase gradient HPLC method, column YMC Pro C8, 50 mm×4.0 mm, 3 μm, Eluent A: Water:trifluoroacetic acid (100:0.5 (v/v)), Eluent B: Acetonitrile:trifluoroacetic:acid (100:0.5 (v/v)). Column temperature 30° C., Flow rate 3.0 mL/min, Detection wavelength: 220 nm
For evaluation, the peak area of the respective compound from the first injection is defined as 100% relative concentration. The peak areas of all other subsequent injections are calculated in percentage relating to this standard. (relative concentration in %). The relative concentrations are plotted in a logarithmic scale (ln) against the injection times. Based on the assumption of a first order kinetic, the rate constant and half life times (t1/2 [h]) can be calculated.

[5] = Plasma stability ex vivo; format: in vitro ADME; conditions: human plasma, 37° C., read-out: t1/2 plasma
Protocol: Plasma stability is determined in human and rat plasma ex vivo. For the determination of the plasma stability of the compounds of formula I, the test compounds were incubated with human plasma (c=5 μg/mL) at 37° C. for certain time intervals up to 60, resp. 120 min (depending on the compound). Afterwards the incubations were stopped by equivalent addition of acetonitrile for protein precipitation, and the samples were mixed and centrifuged. The supernatants were adequately diluted and analyzed by HPLC with UV detection at 305 nm.
The degradation of the compounds of formula I as well as the formation of the active drug entacapone were monitored, and the half-life times of the compounds of formula I were calculated from the obtained peak areas.

[6] = 0.1 N HCl, pH 1, simulated gastric fluid, shaken 10 min, read-out: Solubility 0.1N HCl Ph 1.0
[7] = FaSSIF, pH 6.5, fassif, fasting state fluid, read-out: Solubility FaSSIF Ph 6.5
[8] = FeSSIF, pH 5, fessif, fed state fluid, read-out: Solubility FeSSIF Ph 5.0
[9] = PBS buffer, pH 7.4, aqueous buffer, read-out: Solubility PBS Ph 7.4
[10] = pH 1, 0.1 N HCl, read-out: t1/2 at pH 1 (converted)
[11] = pH 7.4, PBS buffer, read-out: t1/2 at pH 7.4 (converted)

| Compound | Papp A→B at 60 min [1] [×10⁻⁶ cm/s] | chromatographic logD [2] | solubility at 10 min [3, 6] [µg/mL] | solubility at 10 min [3, 7] [µg/mL] | solubility at 10 min [3, 8] [µg/mL] | solubility at 10 min [3, 9] [µg/mL] | half-life [4, 10] [h] | half-life [4, 11] [h] | half-life at 5 μg/mL [5] [min] |
| --- | --- | --- | --- | --- | --- | --- | --- | --- | --- |
| CCN(CC)C(=O)/C(C#N)=C/c1cc(OC(=O)OC(C)(C)C(=O)OC)c(O)c([N+](=O)[O-])c1 [Compound 20, 2-[5-((E)-2-Cyano-2-diethylcarbamoyl-vinyl)-2-hydroxy-3-nitro-phenoxycarbonyloxy]-2-methyl-propionic acid methyl ester] | 11.7 | – | – | – | – | – | – | – | – |
| CCN(CC)C(=O)/C(C#N)=C/c1cc(OC(=O)OCc2ccccc2)c(O)c([N+](=O)[O-])c1 [Compound 11, Carbonic acid benzyl ester 5-((E)-2-cyano-2-diethylcarbamoyl-vinyl)-2-hydroxy-3-nitro-phenyl ester] | – | 1.6 | 150 (≈ 341 µM) | 80 (≈ 182 µM) | 20 (≈ 45.5 µM) | 280 (≈ 637 µM) | 3 | 4.1 | – |
| CCOC(=O)C(C)(C)OC(=O)Oc1cc(/C=C(\C#N)C(=O)N(CC)CC)cc([N+](=O)[O-])c1O [Compound 26, 2-[5-((E)-2-Cyano-2-diethylcarbamoyl-vinyl)-2-hydroxy-3-nitro-phenoxycarbonyloxy]-2-methyl-propionic acid ethyl ester] | < 5.1 | – | – | – | – | – | – | – | – |
| C=CCOC(=O)Oc1cc(/C=C(\C#N)C(=O)N(CC)CC)cc([N+](=O)[O-])c1O [Compound 65, Carbonic acid allyl ester 5-((E)-2-cyano-2-diethylcarbamoyl-vinyl)-2-hydroxy-3-nitro-phenyl ester] | 8.5 | 1 | – | – | – | – | 16.5 | 4.1 | 1 |
| CCCCCOC(=O)Oc1cc(/C=C(\C#N)C(=O)N(CC)CC)cc([N+](=O)[O-])c1O [Compound 6, Carbonic acid 5-((E)-2-cyano-2-diethylcarbamoyl-vinyl)-2-hydroxy-3-nitro-phenyl ester pentyl ester] | < 5.1 | – | – | – | – | – | – | – | – |
| CCN(CC)CCOC(=O)Oc1cc(/C=C(\C#N)C(=O)N(CC)CC)cc([N+](=O)[O-])c1O [Compound 55, Carbonic acid 5-((E)-2-cyano-2-diethylcarbamoyl-vinyl)-2-hydroxy-3-nitro-phenyl ester 2-diethylamino-ethyl ester] | – | 1 | > 1000 | > 1000 | > 1000 | > 1000 | 4.1 | < 1 | – |
| CCN(CC)C(=O)/C(C#N)=C/c1cc(OC(=O)OCC(=O)O)c(O)c([N+](=O)[O-])c1 [Compound 146, [5-((E)-2-Cyano-2-diethylcarbamoyl-vinyl)-2-hydroxy-3-nitro-phenoxycarbonyloxy]-acetic acid] | – | 1.7 | 30 (≈ 73.6 µM) | 630 (≈ 1550 µM) | 250 (≈ 614 µM) | 830 (≈ 2040 µM) | 11 | 12.2 | – |
| CCOC(=O)CC(C)OC(=O)Oc1cc(/C=C(\C#N)C(=O)N(CC)CC)cc([N+](=O)[O-])c1O (centres unmarked) [Compound 34, 3-[5-((E)-2-Cyano-2-diethylcarbamoyl-vinyl)-2-hydroxy-3-nitro-phenoxycarbonyloxy]-butyric acid ethyl ester] | 14.6 | – | – | – | – | – | – | – | – |
| CCN(CC)C(=O)/C(C#N)=C/c1cc(OC(=O)OCC2COC(C)(C)O2)c(O)c([N+](=O)[O-])c1 (centres unmarked) [Compound 12, Carbonic acid 5-((E)-2-cyano-2-diethylcarbamoyl-vinyl)-2-hydroxy-3-nitro-phenyl ester 2,2-dimethyl-[1,3]dioxolan-4-ylmethyl ester] | 2.3 | – | – | – | – | – | < 1 | 2.8 | – |
| CCN(CC)C(=O)/C(C#N)=C/c1cc(OC(=O)OC(C)c2ccccc2)c(O)c([N+](=O)[O-])c1 (centres unmarked) [Compound 137, Carbonic acid 5-((E)-2-cyano-2-diethylcarbamoyl-vinyl)-2-hydroxy-3-nitro-phenyl ester 1-phenyl-ethyl ester] | – | 2.6 | – | 150 (≈ 331 µM) | 20 (≈ 44.1 µM) | 340 (≈ 750 µM) | 7.8 | 21.4 | – |
| CCN(CC)C(=O)/C(C#N)=C/c1cc(OC(=O)OC2CC3CCC2(C)C3(C)C)c(O)c([N+](=O)[O-])c1 (centres unmarked) [Compound 67, Carbonic acid 5-((E)-2-cyano-2-diethylcarbamoyl-vinyl)-2-hydroxy-3-nitro-phenyl ester 1,7,7-trimethyl-bicyclo[2.2.1]hept-2-yl ester] | 14.8 | 2.8 | – | – | – | – | 12.8 | 14.4 | 2.8 |
| CCN(CC)C(=O)/C(C#N)=C/c1cc(OC(=O)OCc2ccc3c(c2)OCO3)c(O)c([N+](=O)[O-])c1 [Compound 131, Carbonic acid benzo[1,3]dioxol-5-ylmethyl ester 5-((E)-2-cyano-2-diethylcarbamoyl-vinyl)-2-hydroxy-3-nitro-phenyl ester] | – | 0.9 | 20 (≈ 41.4 µM) | 960 (≈ 1990 µM) | 710 (≈ 1470 µM) | 970 (≈ 2010 µM) | 15.3 | 3.4 | – |
| C#CCCOC(=O)Oc1cc(/C=C(\C#N)C(=O)N(CC)CC)cc([N+](=O)[O-])c1O [Compound 83, Carbonic acid but-3-ynyl ester 5-((E)-2-cyano-2-diethylcarbamoyl-vinyl)-2-hydroxy-3-nitro-phenyl ester] | 4.9 | 1.1 | 10 (≈ 24.9 µM) | 910 (≈ 2270 µM) | 430 (≈ 1070 µM) | 850 (≈ 2120 µM) | 12.8 | 3 | – |
| CCN(CC)C(=O)/C(C#N)=C/c1cc(OC(=O)OCc2ccc([N+](=O)[O-])cc2)c(O)c([N+](=O)[O-])c1 [Compound 27, Carbonic acid 5-((E)-2-cyano-2-diethylcarbamoyl-vinyl)-2-hydroxy-3-nitro-phenyl ester 4-nitro-benzyl ester] | 18.1 | > 8 | – | – | – | – | 3.4 | 1.6 | > 8 |
| CCN(CC)C(=O)COC(=O)Oc1cc(/C=C(\C#N)C(=O)N(CC)CC)cc([N+](=O)[O-])c1O [Compound 18, Carbonic acid 5-((E)-2-cyano-2-diethylcarbamoyl-vinyl)-2-hydroxy-3-nitro-phenyl ester diethylcarbamoylmethyl ester] | < 5.1 | – | – | – | – | – | – | – | – |
